Reference: publication PMC1142193 (Evidence-based Complementary and Alternative Medicine, 2005)
“Also recorded” adds a separate entry of the source.

Target: SARS-CoV 3CL^Pro (Severe acute respiratory syndrome coronavirus, UniProt P0C6U8)
Experiment: biochemical
Format: biochemical
Settings: for IC50: IC50, inhibition of SARS 3CL^Pro activity

| Compound | Inhibition of 3CL^Pro activity (in words) | IC50 | Inhibition of 3CL^Pro activity at concentrations up to 100 µM (in words) |
| --- | --- | --- | --- |
| O=c1c(O)cc([C@H]2Oc3cc(O)cc(O)c3C[C@H]2O)cc2c([C@H]3Oc4cc(O)cc(O)c4C[C@H]3O)cc(O)c(O)c12 [TF1, Theaflavin] | found to inhibit 3CL^Pro | 56 µM |  |
| Cn1c(=O)c2[nH]cnc2n(C)c1=O [Theophylline, theophylline, reference compound] | did not inhibit; also recorded: did not influence 3CL^Pro activity |  | not able to inhibit |
| O=C(O[C@@H]1Cc2c(O)cc(O)cc2O[C@@H]1c1ccc(O)c(O)c1)c1cc(O)c(O)c(O)c1 [ECg, epicatechin gallate] | did not inhibit | ≥ 100 µM | not able to inhibit |
| Oc1cc(O)c2c(c1)O[C@H](c1cc(O)c(O)c(O)c1)[C@H](O)C2 [EGC, epigallocatechin] | did not inhibit | ≥ 100 µM | not able to inhibit |
| Cn1c(=O)c2c(ncn2C)n(C)c1=O [Caffeine, caffeine, reference compound] | did not inhibit; also recorded: did not influence 3CL^Pro activity |  | not able to inhibit |
| Oc1cc(O)c2c(c1)O[C@H](c1ccc(O)c(O)c1)[C@H](O)C2 [EC, epicatechin] | did not inhibit | ≥ 100 µM | not able to inhibit |
